Calls of active or inactive are those of the source. The rule behind the calls is not given here.
Experiments:
Escherichia coli [1] = test: Antibacterial activity against Escherichia coli UTI89 incubated for 18 hrs by broth microdilution method; format: functional
Escherichia coli [2] = test: Antibacterial activity against Escherichia coli UTI89 incubated for 18 hrs in presence of 1:2 ratio of ciprofloxacin to compound by broth microdilution method; format: functional
Escherichia coli [3] = test: Antibiofilm activity against Escherichia coli UTI89 incubated for 24 hrs; format: functional
Escherichia coli [4] = test: Antibiofilm activity against Escherichia coli UTI89 incubated for 24 hrs in presence of 1:2 ratio of ciprofloxacin to compound; format: functional
Escherichia coli [5] = test: Ratio of MBEC for ciprofloxacin to compound for antibiofilm activity against Escherichia coli UTI89; format: functional
Escherichia coli [6] = test: Antibiofilm activity against Escherichia coli UTI89 assessed as reduction in biofilm residing cells at 12.5 uM incubated for 24 hrs relative to control; format: functional; design: scale not given: the % may be the effect or the level left
Escherichia coli [7] = test: Antibiofilm activity against Escherichia coli UTI89 assessed as reduction in viable bioflim associated cells at 12.5 uM incubated for 24 hrs relative to control; format: functional
Escherichia coli [8] = test: Antibiofilm activity against Escherichia coli UTI89 assessed as small bacterial cells at 400 uM incubated for 24 hrs by SYTO9 and PI staining based fluorescence microscopic method; format: functional, organism-based
Escherichia coli [9] = test: Antibiofilm activity against Escherichia coli UTI89 assessed as dead cells at 400 uM incubated for 24 hrs by SYTO9 and PI staining based fluorescence microscopic method; format: functional, organism-based
Escherichia coli [10] = test: Antibiofilm activity against Escherichia coli UTI89 at 12.5 uM incubated for 24 hrs by SYTO9 and PI staining based fluorescence microscopic method; format: functional
Escherichia coli [11] = test: Antibiofilm activity against Escherichia coli UTI89 at 400 uM incubated for 24 hrs by SYTO9 and PI staining based fluorescence microscopic method; format: functional
Escherichia coli [12] = test: Antibiofilm activity against Escherichia coli UTI89 assessed as cell filamentation at 12.5 to 25 uM incubated for 24 hrs by SYTO9 and PI staining based fluorescence microscopic method; format: functional, organism-based
Escherichia coli [13] = test: Potentiation of ciprofloxacin-induced antibiofilm activity against Escherichia coli UTI89 assessed as increase in ciprofloxacin-induced log reduction in CFU at 20 uM incubated for 24 hrs; format: functional
Escherichia coli [14] = test: Potentiation of ciprofloxacin-induced antibiofilm activity against Escherichia coli UTI89 assessed as increase in ciprofloxacin-induced log reduction in CFU at 40 uM incubated for 24 hrs; format: functional
Escherichia coli [15] = test: Potentiation of ciprofloxacin-induced antibiofilm activity against Escherichia coli UTI89 assessed as increase in ciprofloxacin-induced log reduction in CFU at 80 uM incubated for 24 hrs; format: functional
Escherichia coli [16] = test: Potentiation of ciprofloxacin-induced antibiofilm activity against Escherichia coli UTI89 assessed as increase in ciprofloxacin-induced reduction in CFU at 20 uM incubated for 24 hrs relative to control; format: functional; design: scale not given: the % may be the effect or the level left
Escherichia coli [17] = test: Potentiation of ciprofloxacin-induced antibiofilm activity against Escherichia coli UTI89 assessed as increase in ciprofloxacin-induced reduction in CFU at 40 uM incubated for 24 hrs relative to control; format: functional; design: scale not given: the % may be the effect or the level left
Escherichia coli [18] = test: Potentiation of ciprofloxacin-induced antibiofilm activity against Escherichia coli UTI89 assessed as increase in ciprofloxacin-induced reduction in CFU at 80 uM incubated for 24 hrs relative to control; format: functional; design: scale not given: the % may be the effect or the level left
T-24 = test: Cytotoxicity against human T24 cells assessed as reduction in cell viability incubated for 24 hrs by LDH assay; format: cell-based
[19] = Escherichia coli, UTI89, 18 h, read-out: MIC

Q: Which MIC (Escherichia coli [1]) does the source give for `CC1(C)CC(C(=O)O)CC(C)(C)N1[O]` here?
A: >1000 µM

Q: And the MIC (Escherichia coli [2])?
A: <=0.045 uM

Q: And the MBEC (Escherichia coli [3])?
A: >1000 µM

Q: And the MBEC (Escherichia coli [4])?
A: <=800 uM

Q: For `CON1C(C)(C)CC(C(=O)NCCCC[C@H](N)C(=O)N2CCN(c3cc4c(cc3F)c(=O)c(C(=O)O)cn4C3CC3)CC2)CC1(C)C`, which MIC (Escherichia coli [1]; [19]) is on record?
A: ≤ 30.6 µM

Q: And the MBEC (Escherichia coli [3])?
A: >1000 µM

Q: For `O=C(O)c1cn(C2CC2)c2cc(N3CCNCC3)c(F)cc2c1=O` [CIPROFLOXACIN], which MIC (Escherichia coli [1]; [19]) is on record?
A: ≤ 0.045 µM

Q: And the MBEC (Escherichia coli [3])?
A: <=800 uM

Q: For `CC1(C)CC(C(=O)NCCCC[C@H](N)C(=O)N2CCN(c3cc4c(cc3F)c(=O)c(C(=O)O)cn4C3CC3)CC2)CC(C)(C)N1[O]`, which MIC (Escherichia coli [1]) is on record?
A: < 1.95 µM

Q: And the MBEC (Escherichia coli [3])?
A: > 1000 µM

Q: What does the source list for `CON1C(C)(C)CC(C(=O)NCCCC[C@H](NC(=O)[C@@H](N)CCCCNC(=O)C2CC(C)(C)N(OC)C(C)(C)C2)C(=O)N2CCN(c3cc4c(cc3F)c(=O)c(C(=O)O)cn4C3CC3)CC2)CC1(C)C`?
A: MIC (Escherichia coli [1]; [19]): ≤ 81.6 µM; MBEC (Escherichia coli [3]): >650 µM

Q: `CC1(C)CC(C(=O)NCCCC[C@H](NC(=O)[C@@H](N)CCCCNC(=O)C2CC(C)(C)N([O])C(C)(C)C2)C(=O)N2CCN(c3cc4c(cc3F)c(=O)c(C(=O)O)cn4C3CC3)CC2)CC(C)(C)N1[O]` was tested. Which MIC (Escherichia coli [1]) did it give?
A: <=10.5 uM

Q: What about the MBEC (Escherichia coli [3]) of the same compound?
A: <=400 uM

Q: What about the Ratio (Escherichia coli [5]) of the same compound?
A: 2

Q: And the Activity (Escherichia coli [6])?
A: 99.7%

Q: And the “fold change (FC)” value (Escherichia coli [7])?
A: 3

Q: And the Activity (Escherichia coli [8])?
A: Active

Q: And the Activity (Escherichia coli [9])?
A: Active

Q: What about the Activity (Escherichia coli [10]) of the same compound?
A: >99%

Q: And the Activity (Escherichia coli [11])?
A: 99.9%

Q: What about the Activity (Escherichia coli [12]) of the same compound?
A: Active

Q: And the Activity (Escherichia coli [13])?
A: 1.35 log10CFU

Q: What about the Activity (Escherichia coli [14]) of the same compound?
A: 1.82 log10CFU

Q: And the Activity (Escherichia coli [15])?
A: 2.69 log10CFU

Q: What about the Activity (Escherichia coli [16]) of the same compound?
A: 98%

Q: What about the Activity (Escherichia coli [17]) of the same compound?
A: 93%

Q: And the Activity (Escherichia coli [18])?
A: 50%

Q: What about the IC50 (T-24) of the same compound?
A: > 500 µM

— ChEMBL document CHEMBL4334425, “Eradicating uropathogenic Escherichia coli biofilms with a ciprofloxacin-dinitroxide conjugate” (Medchemcomm, 2019)
